Test results: patent US20120040996A1, “3-BENZOFURANYL-INDOL-2-ONE DERIVATIVES SUBSTITUTED AT THE 3 POSITION, PREPARATION THEREOF, AND THERAPEUTIC USE THEREOF” (SANOFI, priority 2009, published 2012)

Target: T1, ghrelin receptor (Rattus norvegicus, UniProt O08725)
T1 construct: Strips of approximately 1 cm (5 mm wide) of gastric fundus were cut out along the longitudinal axis; from tissue; host or cells: rat gastric fundus strips
Experiment: Ghrelin concentration-response on electrically stimulated isolated rat gastric fundus strips (headed "In Vivo Test")
Details: electric-field stimulation, ghrelin 0.1 nM-1 μM, antagonist contact time 30 minutes, read-out: IC50, antagonist activity towards the ghrelin receptor
Method: Male Crl CD BR rats (Charles River, Italy) weighing 150-175 g were housed in a chamber at regulated temperature (22±1° C.) and humidity (55±10%) and with a 12-hour lightness-darkness cycle, for at least 7 days before their use. Feed and water were available ad libitum. The feed was removed 18 hours before sacrificing the animals. The rats were sacrificed by cervical dislocation, and the stomach was removed surgically, opened along the shorter curvature and placed in a Krebs solution (of composition (mM): 118.4 NaCl; 4.7 KCl; 2.5 CaCl2; 3.7 NaH2PO4; 1.2 MgSO4; 25 NaHCO3; 5.6 glucose). The animals were cared for and sacrificed according to the Sanofi-Aventis international code of ethics and the international principles governing the care and treatment of laboratory animals (EEC Directive 86/609, DJL358, 1, 12 Dec. 1987). […] The contractions were recorded by computer with a data recording and analysis system (Power Lab, Chart 5) connected to isotonic transducers (Ugo Basile, Varese, Italy) via preamplifiers (Octal Bridge Amp). […] The pKb values for the antagonists were calculated according to the Cheng-Prusoff equation (Kenakin et al., Competitive Antagonism, Pharmacologic Analysis of Drug-Receptor Interaction, 3rd edition, 331-373, Philadelphia, New York; Raven: Lippincott, 1997).

T1 sequence (O08725 whole entry): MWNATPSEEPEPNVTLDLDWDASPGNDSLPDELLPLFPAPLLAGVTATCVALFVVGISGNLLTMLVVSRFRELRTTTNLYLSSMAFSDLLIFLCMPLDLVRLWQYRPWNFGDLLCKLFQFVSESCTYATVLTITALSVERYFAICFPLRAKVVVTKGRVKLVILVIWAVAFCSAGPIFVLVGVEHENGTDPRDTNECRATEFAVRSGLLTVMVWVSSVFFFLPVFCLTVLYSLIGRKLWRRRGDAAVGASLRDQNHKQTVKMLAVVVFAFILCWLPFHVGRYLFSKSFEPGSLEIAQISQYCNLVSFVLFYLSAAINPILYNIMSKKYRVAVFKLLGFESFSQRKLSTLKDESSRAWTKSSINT

- IC50: 0.022 µM
SMILES: CCN1CCN(CC(=O)NC2(c3ccc4occc4c3)C(=O)Nc3cc(Cl)cc(Cl)c32)CC1 (single isomer, unassigned; (+)) [Example 1, (+)-N-[4,6-Dichloro-3-(benzofuran-5-yl)-2-oxo-2,3-dihydro-1H-indol-3-yl]-2-(4-ethylpiperazin-1-yl)acetamide]
